How the values were obtained:
CD36 mRNA = assay: Real-time quantitative PCR of CD36 mRNA in foam cells; type: cell-based; settings: 25 μM, rat foam cells
Description: FIG. 1 provides effects of a ginsenoside compound K (C-K, 25 μM) and pyrrolidine dithiocarbamate (PDTC, 25 μM) on the foam cell CD36 mRNA expression. a: P<0.05, vs foam cell group; b: P<0.05, vs PDTC. PDTC (25 μM) C-K (25 μM) (n=5).
(1) Material and reagents (the same as Example 2).
(§1) (2) real-time quantitative PCR analysis (a reference method: Zhang Yiguan, Li Xiaohui, Fan Jishan, Zhang Haigang, Li Shuhui, Liao Wenqiang, Pang Yan, Jia Yi. Total panax notoginsenosides suppress atherosclerosis formation in rats by means of antiinflammatory and blood fat regulating action. Progress in Modern Biomedicine. 2007, 27(11): 1601-1607).
(§2) Data was expressed as x±s, variance analysis were carried out between groups by SPSS 13.0 software.

Kunming mice = assay: Primary survey for toxicity in mice (gavage, 14 days); type: in vivo
Description: 40 Kunming mice (weight 18-22 g) were randomly divided into blank group of 20 mice, and ginsenoside compound K group of 20 mice, wherein male and female mice were fifty-fifty in each group. Fasting was carried out before trial for 16 h, allowing mice to freely drink water. Each mouse in drug group was gavaged with ginsenoside compound K (bought from) suspension according to a dose of 400 mg/kg, and blank group was gavaged equivalent amount of distilled water, with administration carried out once a day. Observation was carried out for 14 days after administration, wherein mice were weighted and animal responses were observed each day. The mice were weighted on fourteenth day of the trial, then were sacrificed and dissected, and tissue change of mice's major organs such as heart, liver, spleen, lung, and kidney were observed.
There was no phenomena such as abnormal crying, tremor, convulsion, dyskinesias, salivation, lacrimation, nose running, respiration difficulty, rapid heartbeat or slow heartbeat, diarrhea, constipation, intestinal tympanites in drug group mice; mice's hair was glossy; No mouse died in 14 days of administration.

LXRα mRNA = assay: Real-time quantitative PCR of LXRα mRNA in foam cells; type: cell-based; settings: 25 μM, rat foam cells
Description: FIG. 5 provides effects of a ginsenoside compound K (C-K, 25 μM) and pyrrolidine dithiocarbamate (PDTC, 25 μM) on the foam cell LXRα mRNA expression. a: P<0.05, vs foam cell group. PDTC (25 μM) C-K (25 μM) (n=5).
(§3) (1) Material and reagents (the same as Examples 2).
as §1, with “27 (11):” for “27(11):”
as §2

perilipin mRNA = assay: Real-time quantitative PCR of perilipin mRNA in foam cells; type: cell-based; settings: 25 μM, rat foam cells
Description: FIG. 2 provides effects of a ginsenoside compound K (C-K, 25 μM) and pyrrolidine dithiocarbamate (PDTC, 25 μM) on the foam cell perilipin mRNA expression.
a: P<0.05, vs. foam cells group. PDTC (25 μM) C-K (25 μM) (n=5).
as §3
as §1, with “27 (11):” for “27(11):”
as §2

ABCA1 mRNA = assay: Real-time quantitative PCR of ABCA1 mRNA in foam cells; type: cell-based; settings: 25 μM, rat foam cells
Description: FIG. 4 provides effects of a ginsenoside compound K (C-K, 25 μM) and pyrrolidine dithiocarbamate (PDTC, 25 μM) on the foam cell ABCA1 mRNA expression. a: P<0.05, vs foam cell group. PDTC (25 μM) C-K (25 μM) (n=5).
as §3
as §1, with “27 (11):” for “27(11):”
as §2

perilipin protein = assay: Protein expression of perilipin in foam cells; type: cell-based; settings: 25 μM, rat foam cells
Description: FIG. 3 provides effects of a ginsenoside compound K (C-K, 25 μM) and pyrrolidine dithiocarbamate (PDTC, 25 μM) on the protein expression of perilipin in foam cell. a: P<0.01, vs foam cell group PDTC (25 μM) C-K (25 μM) (n=5).
as §3, §2

CC(C)=CCC[C@](C)(OC1OC(CO)C(O)C(O)C1O)C1CC[C@]2(C)C1[C@H](O)CC1[C@@]3(C)CC[C@H](O)C(C)(C)C3CC[C@]12C (stereo partly drawn) [C-K, 20-O-β-D-glucopyranosyl 20-(S)-protopanaxadiol]
change of CD36 mRNA expression in foam cells compared with model group (CD36 mRNA): not obvious
mice's response to acute toxicity (Kunming mice; Kunming mice, 400 mg/kg gavage): not obvious
time until signs after gavage (eye closed, lying down, reduced autonomic activities, appetite descent) restored normal (Kunming mice; Kunming mice, 400 mg/kg gavage): ≤ 2 h
death of mice in 14 days of administration (Kunming mice; Kunming mice, 400 mg/kg gavage once a day, 14 days): No mouse died
organs observed by naked eye after dissection (Kunming mice; mouse, in vivo, 400 mg/kg): no abnormality in each organ
expression of LXRα mRNA in foam cells compared with model group (LXRα mRNA): significantly up-regulated
expression of perilipin mRNA in foam cells compared with model group (perilipin mRNA): significantly down-regulated
expression of ABCA1 mRNA in foam cells compared with model group (ABCA1 mRNA): significantly up-regulated
expression of perilipin proteins in foam cells compared with model group (perilipin protein): significantly down-regulated

— patent US20110212909A1, “Use of Ginsenoside Compound K in the Preparation of a Medicament for the Prevention and Treatment of Atherosclerosis” (priority 2008, published 2011)
